Test results taken from ChEMBL document CHEMBL1150978, “Design and synthesis of cosalane, a novel anti-HIV agent” (Bioorg Med Chem Lett, 1993).

How the values were obtained:
CEM-SS [1] = experiment: Tested for the antiviral activity against CEM-SS cells infected with HIV-1 (RF); value ranges from 2-15.; assay type: functional, cell-based; conditions: Homo sapiens
MT2 [2] = experiment: Tested for the inhibitory activity against MT-2 cells; assay type: functional, cell-based; conditions: Homo sapiens
[3] = Tested for the therapeutic index against Sc-1 cells of rauscher murine leukemia virus (R-Mul V) by plaque assay in mouse; assay type: functional
MT2 [4] = experiment: Tested for the antiviral activity against MT-2 cells infected with AZT sensitive strain of HIV-1 (A012); assay type: functional, cell-based; conditions: Homo sapiens
CEM-SS [5] = experiment: Tested for the inhibitory activity against CEM-SS cells; assay type: functional, cell-based; conditions: Homo sapiens
MT2 [6] = experiment: Tested for the therapeutic index against MT-2 cells of AZT sensitive strain of HIV-1 (A012); assay type: functional, Homo sapiens
CEM-SS [7] = experiment: Tested for the therapeutic index against CEM-SS cells of HIV-2 (NIH-D2); assay type: functional, Homo sapiens
[8] = Tested for the antiviral activity against Sc-1 cells infected with rauscher murine leukemia virus (R-Mul V) by plaque assay in mouse; assay type: functional, cell-based
CEM-SS [9] = experiment: Tested for the therapeutic index against CEM-SS cells of HIV-1 (RF); assay type: functional, Homo sapiens
CEM-SS [10] = experiment: Tested for the therapeutic index against CEM-SS cells of HIV-1 (IIIb); assay type: functional, Homo sapiens
MT2 [11] = experiment: Tested for the antiviral activity against MT-2 cells infected with AZT resistant strain of HIV-1 (A012); assay type: functional, cell-based; conditions: Homo sapiens
CEM-SS [12] = experiment: Tested for the antiviral activity against CEM-SS cells infected with HIV-2 (NIH-D2); assay type: functional, cell-based; conditions: Homo sapiens
MT4 [13] = experiment: Tested for the antiviral activity against MT-4 cells infected with HIV (IIIb) strain resistant to non-nucleoside reverse transcriptase inhibitors; assay type: functional, cell-based; conditions: Homo sapiens
[14] = Tested for the inhibitory activity against Sc-1 cells by plaque assay in mouse; assay type: functional, cell-based
MT2 [15] = experiment: Tested for the therapeutic index against MT-2 cells of AZT resistant strain of HIV-1 (A012); assay type: functional, Homo sapiens
MT4 [16] = experiment: Tested for the therapeutic index against MT-4 cells of HIV-1 (IIIb); assay type: functional, Homo sapiens
[17] = Tested for the therapeutic index of production of viral antigen (p30) against Sc-1 cells of rauscher murine leukemia virus (R-Mul V); assay type: functional, Mus musculus
MT4 [18] = experiment: Tested for the inhibitory activity against MT-4 cells; assay type: functional, cell-based; conditions: Homo sapiens
[19] = Tested for the antiviral activity of production of viral antigen (p30) against Sc-1 cells of rauscher murine leukemia virus (R-Mul V); assay type: functional, cell-based; conditions: Mus musculus
[20] = Tested for the inhibitory activity of production of viral antigen (p30) against Sc-1 cells of rauscher murine leukemia virus (R-Mul V); assay type: functional, cell-based; conditions: Mus musculus

For `CC(C)CCCC(C)[C@H]1CC[C@H]2[C@@H]3CCC4C[C@@H](CCC=C(c5cc(Cl)c(O)c(C(=O)O)c5)c5cc(Cl)c(O)c(C(=O)O)c5)CC[C@]4(C)[C@H]3CC[C@]12C` (stereo not given in full), the EC50 (CEM-SS [1]) was 2 µM, the IC50 (MT2 [2]) was 200 µM and the TI50 [3] was >8. For the same molecule, the EC50 (MT2 [4]) was 8 µM, the IC50 (CEM-SS [5]) was > 300 µM and the TI50 (MT2 [6]) was 25. For the same molecule, the TI50 (CEM-SS [7]) was >60, the EC50 [8] was 4 µM and the TI50 (CEM-SS [9]) was >20. The TI50 (CEM-SS [10]) was >100, the EC50 (MT2 [11]) was 10 µM and the EC50 (CEM-SS [12]) was 5 µM. The EC50 (MT4 [13]) was 20 µM, the IC50 [14] was > 32 µM and the TI50 (MT2 [15]) was 20. The TI50 (MT4 [16]) was >15, the TI50 [17] was >4 and the IC50 (MT4 [18]) was > 300 µM. For the same molecule, the EC50 [19] was 7 µM and the IC50 [20] was > 32 µM.
